Experimental data as given in patent US20180271945A1, “UROCORTIN 2 ANALOGS AND USES THEREOF” (Research Development Foundation, priority 2009, published 2018).
Read-outs that look alike come from different tables or passages of the source. No end group written: not given here. *: point of attachment. Acm = CC(=O)NC*

Experiments:
CRFR2 = target: T1, CRFR2 (Rattus norvegicus, UniProt P47866); assay: stimulation of cAMP accumulation in A7r5 cells; assay type: cell-based
T1 construct: A7r5 cells, which express CRFR2; endogenous in cells; host or cells: A7r5 cells
T1 sequence (P47866 1-431 isoform P47866-2): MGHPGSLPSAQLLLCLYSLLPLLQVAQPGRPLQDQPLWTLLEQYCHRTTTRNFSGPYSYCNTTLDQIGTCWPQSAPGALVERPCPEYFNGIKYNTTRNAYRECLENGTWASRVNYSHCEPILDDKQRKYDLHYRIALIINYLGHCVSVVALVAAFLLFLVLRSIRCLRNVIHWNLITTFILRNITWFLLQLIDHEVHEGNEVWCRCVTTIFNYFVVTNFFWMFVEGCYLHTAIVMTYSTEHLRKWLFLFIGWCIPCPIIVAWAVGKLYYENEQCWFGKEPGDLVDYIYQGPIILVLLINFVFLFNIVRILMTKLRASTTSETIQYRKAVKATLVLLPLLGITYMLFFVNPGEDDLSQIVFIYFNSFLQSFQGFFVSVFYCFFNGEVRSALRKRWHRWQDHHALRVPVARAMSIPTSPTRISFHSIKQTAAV
Method: Urocortin 2 precursors were overexpressed in various cell lines, and their function was evaluated. Pancreatic and skin cell lines were infected with mouse urocortin 2 (mUcn 2) lentivirus. The amino acid sequence of mouse urocortin 2 is provided as SEQ ID NO:10. […] The peptide was synthesized and bioactivity was determined by the stimulation of cAMP accumulation in A7r5 cells, which express CRFR2. […] It is possible that R^0mUcn 2 could be further processed by aminopeptidases to mUcn 2(1-38). Number of assays are depicted as a superscript.
The corresponding human analog, R^0hUcn 2, was synthesized.
The EC50S were calculated based on protein determination by immunoassay and chromatographic peak height.

[1] = QC reverse phase HPLC (trifluoroacetic acid/acetonitrile) as evidence of solubility/hydrophilicity; assay type: physicochemical; details: from reverse phase HPLC retention time
From the text: A peptide extended with a hydrophilic arginine residue such as R^0hUcn 2 is likely more soluble, and therefore, a better pharmaceutical agent, than hUcn 2(1-38). […]

[2] = A7r5 cells, EC50s calculated based on protein determination by immunoassay and chromatographic peak height, read-out: cAMP A7r5 (EC50)
[3] = A7r5 cells, which express CRFR2, range in brackets, number of assays as superscript, read-out: EC50 for stimulation of cAMP accumulation in A7r5 cells

Substance	EC50 (CRFR2; [2]) [nM]	further results
IPTFQLRPQNSPQTTPRPAASESPSAAPTWPWAAQSHCSPTRHPGSRIVLSLDVPIGLLQILLEQARARAAREQATTNARILARV-NH2 [hUcn 2 prohormone]		EC50 (CRFR2): 2.3 nM
RIVLSLDVPIGLLQILLEQARARAAREQATTNARILARV-NH2 [R^0-hUcn 2]		EC50 (CRFR2; [3]): 0.027 nM; hydrophilicity compared with hUcn 2(1-38) [1]: significantly increased hydrophilicity
RVILSLDVPIGLLRILLEQARYKAARNQAATNAQILAHV-NH2 [R^0-mUcn 2]		EC50 (CRFR2; [3]): 0.05 nM
TPIPTFQLLPQNSLETTPSSVTSESSSGTTTGPSASWSNSKASPYLDTRVILSLDVPIGLLRILLEQARYKAARNQAATNAQILAHV-NH2 [mUcn 2 prohormone]		EC50 (CRFR2): 0.53 nM

The next lines start with results.

EC50 (CRFR2; [2]) [nM]	Substance	further results
9.5	C(Acm)SPTRHPGSRIVLSLDVPIGLLQILLEQARARAAREQATTNARILARVGHC(Acm)-OH [[Cys^1,51 (Acm)]-hUcn 2(1-51)-OH)]	
0.09	HPGSRIVLSLDVPIGLLQILLEQARARAAREQATTNARILARV-NH2 [SRP (HPGSR-hUcn 2)]	
90.4	IVLSLDVPIGLLQILLEQARARAAREQATTNARILARV-OH [hUcn 2-OH]	
6.3	IVLSLDVPIGLLQILLEQARARAAREQATTNARILARVG-OH [hUcn 2-G-OH]	
2.9	IVLSLDVPIGLLQILLEQARARAAREQATTNARILARVGH-OH [hUcn 2-GH-OH]	
13.9	IVLSLDVPIGLLQILLEQARARAAREQATTNARILARVGHC-OH [hUcn 2-GHC-OH]	
